Key:
A394V mice = experiment: Plasma Hcy in NKH knock-in mouse model (GLDC mutation A394V) challenged with glycine
Description: In another exemplary experiment, NKH as represented in the experimental mouse model, A394V mice was tested for levels of Hcy in the NKH mouse model when exposed to various agents.
In this experiment, a knock-in mouse model with the clinically observed human GLDC mutation A394V engineered into the mouse gene was used. This mutation retains a small amount of residual enzyme that is sufficient to create a viable model.
Data shown has an N=5 animals per group and is representative of 2 independent experiments.

HO HCU mice [1] = experiment: Plasma Hcy, cysteine and metabolite levels in HO HCU mice treated via drinking water; format: in vivo, mouse; settings: for further lowering of Hcy due to betaine in the presence of the amino acid: about 3.0% w/v amino acid combined with about 3.0% w/v betaine in drinking water, one week; for plasma Hcy / plasma cysteine levels: HO mice, about 3.0% (w/v) in drinking water ad libitum for one week, normal methionine diet
Description: It is noted that WT mice (n=6) were untreated controls. HO HCU mice (N=8, 4 of each sex in each group) were either untreated or treated with about 3.0% (w/v) glycine w/v or about 3.0% (w/v) serine given in drinking water supplied ad libitum for one week.
In accordance with these methods, HO HCU mice (N=8, 4 of each sex in each group) were treated with either about 3.0% glycine w/v or about 3.0% w/v serine given in drinking water supplied ad libitum for one week in the presence and absence of about 3.0% w/v betaine. Plasma samples were taken from the mice at various times and Hcy levels were determined.
Plasma Hcy levels were determined from HO HCU mice (n=8 per group) in the presence and absence of either about 5.0% w/v sodium formate alone or in combination with about 3.0% betaine given in drinking water given ad libitum. […]

Cbs null mouse [2] = experiment: Hcy lowering, survival and liver injury in Cbs null mouse model; format: in vivo; settings: Cbs null mice with severe liver damage
Excerpt: In one exemplary method, an acceptable mouse mode of HCU is used to study various effects of exemplary compositions disclosed herein on aberrant Hcy levels. To date, the majority of research on HCU has been performed using a CBS knockout mouse model. These Cbs (−/−) animals suffer from pronounced liver injury and typically die within 2-3 weeks of birth.
In an alternative experiment, agents were used to verify involvement of BHMT in the homocystinuria treatment process. In these exemplary methods, a Cbs null mouse was used where severe liver damage to the mouse model interferes with standard HCU treatments to reduce Hcy.

DMGDH = experiment: Western blot analysis of hepatic DMGDH protein levels in HO HCU mice; format: in vivo, mouse
Description: In other exemplary experiments, it is noted that methotrexate (MTX) treatment represses hepatic DMGDH protein levels even further in experimental HO HCU mice which supports the hypothesis that expression of this enzyme is sensitive to THF levels. In accordance with these methods, Western blot analysis of hepatic DMGDH protein levels in HO HCU mice in the presence and absence of methotrexate levels were assessed.
As illustrated herein, FIGS. 10A-10B represents a Western blot comparing the level of DMGDH and GAPDH (control) for untreated (HO) and treated (HO+MTX, methotrexate) mice (HO) using the HCU mouse model (10A); and further illustrated in a histogram plot (10B), level of intensity of DMDGH for untreated (HO) and treated (HO+MTX, methotrexate) mice (HO) using the HCU mouse model. This figure represents an N=9 per group and this figure is a representative of three independent experiments. P<0.05.
In another exemplary method, experiments were performed to measure levels of a critical enzyme in treated and untreated mouse models (HO).
As found in FIGS. 15A-15B, a Western blot comparing the level of DMGDH and GAPDH (control) for untreated (HO), treated (e.g. formate agent) and treated with standard treatment combinations (e.g. formate and trimethylglycine (e.g. betaine)) using the HCU mouse model (15A); and further illustrating in a histogram plot (15B), level of intensity of DMDGH for untreated (HO), treated (e.g. formate agent) and treated with standard treatment combinations (e.g. formate and trimethylglycine (e.g. betaine)) using the HCU mouse model in certain embodiments disclosed herein. Western blotting analysis of hepatic DMGDH protein levels in HO HCU mice in the presence and absence of either about 5.0% sodium formate alone or in combination with about 3.0% betaine given ad libitum in drinking water for about one week. N=9 per group. This figure is representative of three independent experiments.

[3] = test system: mouse model of MTR deficient homocystinuria; experiment: Betaine supplementation in mouse model of MTR deficient homocystinuria; format: in vivo
Excerpt: In the following exemplary experiments, it was observed that betaine supplementation was limited as observed in a mouse model of MTR deficient homocystinuria. As noted in FIG. 1, Homocystinuria can occur due to defects in the Hcy remethylation enzymes MTR or MTHFR. It was observed that supplementation of betaine in certain experiments with a mouse model of MTR deficient homocystinuria lead to reduction of tHcy of approximately 25% having little effect on the condition. This modest decrease in betaine mediated treatment of MTR deficient homocystinuria has also been observed in human patients with this form of homocystinuria.

Cbs null mouse [4] = settings: betaine treatment; cited from earlier work
DHFR = experiment: Western blotting analysis of hepatic DHFR protein levels in HO HCU mice; format: in vivo, mouse; settings: betaine treated, not restored to control levels
Description: In other exemplary experiments, levels of DHFR were assessed using the HO mouse model in untreated and betaine treated mice. […] In addition, intensity levels of DHFR were measured and further illustrated in a histogram plot. As illustrated, level of intensity of DHFR for wild type (WT), treated (HO+betaine) and untreated mice (HO) using the HCU mouse model was examined. It is noted that the level of DHFR in betaine treated mice was not restored to control levels and only about a 5-10% improvement was observed (4B). (See FIGS. 4A-4B). As noted herein, Western blotting analysis of hepatic DHFR protein levels in WT and HO HCU mice. N=9 per group.

HO HCU mice [5] = experiment: Long-term betaine treatment of HO HCU mice without methionine-restriction; format: in vivo, mouse
hepatic 5-methyl-THF = experiment: Hepatic metabolomic analysis of 5-MeTHF in HO mice; format: in vivo, mouse; settings: betaine 3% w/v in drinking water ad libitum
Excerpt: As illustrated in one example, see FIG. 2, HCU (HO) induces a significant accumulation of hepatic 5-methyl-THF which by sequestering one carbon units has the potential to decrease the available pool of THF available to the betaine pathway for lowering Hcy. FIG. 2 illustrates an example of hepatic metabolomic analysis of HO and WT controls compared to an HO mouse treated with betaine. Comparative hepatic metabolomic analysis of HO mice and WT controls illustrate about a 10-fold accumulation in the MTHFR product 5-MeTHF. Betaine treatment alone reduced 5-MeTHF by about 15-25%. Data illustrated in FIG. 2 is derived from the livers of 8 (4 male, 4 female) individual HO or WT or HO Betaine mice per group. Betaine was given at 3% w/v in drinking water given ad libitum. P<0.0001 vs WT.

BHMT = BHMT protein level in liver during long-term betaine treatment; format: in vivo
Excerpt: By this observation, it raised the possibility that the BHMT protein is impaired in its function. […] In this context, further induction of BHMT expression observed in a long-term betaine treatment group could constitute a not entirely successful compensatory mechanism designed to mitigate the effects of diminished BHMT activity.
In other embodiments disclosed herein, it was observed that BHMT is unusual in that it constitutes approximately 2% of total protein in the liver. During long-term betaine treatment this concentration rises to up to four to five fold (about 8-10%) of total hepatic protein which is an enormous amount of protein that would require zinc for its function. The increased requirement for zinc cannot be supplied because zinc cannot be stored in mammals and must be supplemented by diet or other source. Unfortunately, dietary sources of zinc are typically very high in protein and therefore precluded by the low methionine diet required of HCU patients. Therefore, long term betaine treatment in HCU could induce a significant zinc deficiency in a subject, impairing BHMT protein function and concomitantly reducing the betaine response.
BHMT is unusual in that it constitutes approximately 2% of total protein in the liver. […]

[6] = betaine treatment of the HO model

With NCC(=O)O [glycine] the “plasma Hcy on glycine challenge” value (A394V mice; mouse, in vivo) was “massive increase”, the “further lowering of Hcy due to betaine in the presence of the amino acid” value (“further lowering of Hcy due to betaine” for short) (HO HCU mice [1]; HO HCU mice) was “reduced and/or completely prevented” and the “plasma Hcy” value (HO HCU mice [1]) was “significantly lowered”. For the same compound, the plasma cysteine levels (HO HCU mice [1]) was “increased” and the “lowering of Hcy in the Cbs null mouse model” value (Cbs null mouse [2]) was “unable to lower Hcy”.

For N[C@@H](Cc1c[nH]c2ccccc12)C(=O)O [tryptophan], the “further lowering of Hcy due to betaine” value (HO HCU mice [1]; HO HCU mice) was “also observed”.

In the case of N[C@@H](Cc1c[nH]cn1)C(=O)O [histidine], the “further lowering of Hcy due to betaine” value (HO HCU mice [1]; HO HCU mice) is reported as “also observed”.

For CN(Cc1cnc2nc(N)nc(N)c2n1)c1ccc(C(=O)N[C@@H](CCC(=O)O)C(=O)O)cc1 [methotrexate], the “hepatic DMGDH protein levels” value (DMGDH; methotrexate treatment) was “represses”.

In the case of C[N+](C)(C)CC(=O)O [betaine, N,N,N-trimethylglycine], the “reduction of tHcy” value [3] is listed as “approximately 25%”, the “fertility of female Cbs (-/-) mice” value (Cbs null mouse [4]) is listed as “restored fertility” and the “lowering of Hcy in Cbs (-/-) mice” value (Cbs null mouse [4]) is listed as “without significantly lowering Hcy”. The “severe liver injury, steatosis, and fibrosis in surviving Cbs (-/-) mice” value (Cbs null mouse [4]) was “not significantly improved”, the “survival of Cbs (-/-) mice” value (Cbs null mouse [4]) was “improved survival” and the “improvement of hepatic DHFR level” value (DHFR) was 5-10%. For the same compound, the “reduction of Hcy levels by standard treatment alone” value (HO HCU mice [1]; HO mouse model, betaine alone, as previously observed) was 15-25%, the AdoHcy levels (HO HCU mice [1]; [6]) was “fivefold decrease” and the “decrease in plasma AdoMet” value (HO HCU mice [1]; [6]) was 40%. The “plasma DMG” value (HO HCU mice [1]; [6]) was “increase”, the “plasma MG” value (HO HCU mice [1]; [6]) was “increase” and the plasma cysteine (HO HCU mice [1]; [6]) was “increase”. The plasma methionine (HO HCU mice [1]; [6]) was “increase”, the “ability of betaine treatment to lower homocysteine” value (HO HCU mice [5]; long-term betaine treatment, no methionine-restriction) was “diminished significantly over time” and the coagulation phenotype (HO HCU mice [5]; prolonged betaine treatment) was “reversion to a hypercoagulative phenotype”. The “plasma levels of TNF-α and IL-Ip” value (HO HCU mice [5]; prolonged betaine treatment) was “significant increase”, the “reduction of hepatic 5-MeTHF” value (hepatic 5-methyl-THF) was 15-25% and the “levels of BHMT protein” value (BHMT) was “significantly higher levels”. For the same compound, the “BHMT as share of total hepatic protein” value (BHMT; approximately 2% normally) was 8-10%.

For O=S(=O)([O-])[O-].[Zn+2] [Zinc sulfate], the “average decrease in plasma homocysteine” value (HO HCU mice [1]; 8 HO HCU mice, 0.05% w/v Zinc sulfate in drinking water ad libitum for one week) was 25% and the “decrease in betaine efficacy during long term betaine treatment, zinc combined with betaine” value (HO HCU mice [1]; HO HCU mice, zinc supplementation with betaine, data not shown) was “prevented”.

With O=C[O-].[Na+] [sodium formate] the “glycine induced increase in Hcy” value (A394V mice; A394V NKH mice, concomitant formate about 5.0% w/v in drinking water with about 5.0% w/v glycine) was “significantly reduced”, the “hepatic DMGDH expression levels” value (DMGDH; about 5.0% sodium formate alone in drinking water, about one week) was “restore normal expression levels” and the “response level for restoring DMGDH, formate agent combined with betaine” value (DMGDH; about 5.0% sodium formate with about 3.0% betaine in drinking water, about one week) was “surprisingly synergistic”. The “plasma Hcy levels” value (HO HCU mice [1]; HO HCU mice, about 5.0% w/v sodium formate alone in drinking water, normal methionine/protein diet) was “significantly lowered”, the “Hcy levels, formate combined with the standard treatment (betaine)” value (HO HCU mice [1]; HO HCU mice, about 5.0% w/v sodium formate with about 3.0% betaine in drinking water, normal protein diet) was “near normal levels” and the “lowering of Hcy in the Cbs null mouse model” value (Cbs null mouse [2]) was “unable to lower Hcy”.

In the case of CNCC(=O)O [sarcosine, sarcosine (methylglycine)], the “further lowering of Hcy due to betaine” value (HO HCU mice [1]; HO HCU mice) is reported as “also observed”.

For N[C@@H](CO)C(=O)O [serine], the “further lowering of Hcy due to betaine” value (HO HCU mice [1]; HO HCU mice) was “reduced and/or completely prevented”, the “plasma Hcy” value (HO HCU mice [1]) was “significantly lowered” and the plasma cysteine levels (HO HCU mice [1]) was “increased”. The “lowering of Hcy in the Cbs null mouse model” value (Cbs null mouse [2]) was “unable to lower Hcy”.

Reference: patent US12465579B2, “Compositions and methods for treating homocystinuria and other conditions” (THE REGENTS OF THE UNIVERSITY OF COLORADO, A BODY CORPORATE, priority 2019, dated 2025)
